Source: patent US10597388B2, “Pyridazinone herbicides” (FMC CORPORATION, priority 2014, dated 2020)

What was measured:
Format in all cases: in vivo
[1] = test system: wheat (winter wheat, Triticum aestivum); assay: Test C greenhouse herbicide test, pre- and postemergence
Outline: (§1)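 Each species was treated both before emergence, in a loam–sand soil mix, and after emergence, as 1- to 4-leaf seedlings in peat-based potting medium. Plants stayed in the greenhouse 13 to 15 d, then were scored from 0 (no effect) to 100 (complete control) relative to controls.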

[2] = test system: ragweed (common ragweed, Ambrosia elatior); assay: as above
Outline: as §1

soybean (Glycine max) = assay: as above
Outline: as §1

[3] = test system: lambsquarters (Chenopodium album); assay: as above
Outline: as §1

[4] = test system: ryegrass, Italian (Italian ryegrass, Lolium multiflorum); assay: as above
Outline: as §1

[5] = test system: pigweed (Amaranthus retroflexus); assay: as above
Outline: as §1

[6] = test system: crabgrass, large (large crabgrass, Digitaria sanguinalis); assay: as above
Outline: as §1

[7] = test system: morningglory (Ipomoea coccinea); assay: as above
Outline: as §1

corn (Zea mays) = assay: as above
Outline: as §1

[8] = test system: foxtail, giant (giant foxtail, Setaria faberii); assay: as above
Outline: as §1

[9] = test system: johnsongrass (Sorghum halepense); assay: as above
Outline: as §1

[10] = test system: barnyardgrass (Echinochloa crus-galli); assay: as above
Outline: as §1

[11] = test system: waterhemp (common waterhemp, Amaranthus rudis); assay: as above
Outline: as §1

[12] = test system: blackgrass (Alopecurus myosuroides); assay: as above
Outline: as §1

kochia (Kochia scoparia) = assay: Test C greenhouse herbicide test, postemergence
Outline: (§2)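 Ratings are visual scores from 0 (no effect) to 100 (complete control), made against controls 13–15 d after treatment. Postemergence sprays were applied in the greenhouse to plants 2–18 cm tall (1- to 4-leaf stage) in peat-moss/vermiculite potting medium.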

[13] = test system: oat, wild (wild oat, Avena fatua); assay: Test C greenhouse herbicide test, postemergence
Outline: as §2

[14] = Postemergence, 31 g ai/ha, 0 to 100 scale (0 no effect, 100 complete control)
[15] = Postemergence, 125 g ai/ha, scale 0 to 100, 0 is no effect, 100 is complete control
[16] = Postemergence, 250 g ai/ha, scale 0 to 100, 0 no effect, 100 complete control, 13 to 15 d
[17] = Preemergence, 31 g ai/ha, scale 0 to 100, 0 is no effect, 100 is complete control
[18] = Preemergence, 62 g ai/ha, scale 0 to 100, 0 is no effect, 100 is complete control
[19] = Preemergence, 125 g ai/ha, scale 0 to 100, 0 is no effect, 100 is complete control
[20] = Preemergence, 250 g ai/ha, scale 0 to 100 (0 no effect, 100 complete control)
[21] = postemergence, 62 g ai/ha, scale 0 to 100, 0 no effect, 100 complete control

Question: With `Cc1cc(C)c2sc(C)c(-c3c(OC(=O)OC(C)C)c(C)nn(C)c3=O)c2c1` [Compound 67] as the compound, how does the “Wheat plant response rating” value [1, 14] read?
Answer: 0

Question: What about the “Plant response rating, Wheat” value [1, 15] of the same compound?
Answer: 0

Question: And the “Plant response rating, Wheat” value [1, 16]?
Answer: 0

Question: What about the “Plant response rating, Wheat” value [1, 17] of the same compound?
Answer: 0

Question: And the “Plant response rating, Wheat” value [1, 18]?
Answer: 0

Question: What about the “Plant response rating, Wheat” value [1, 19] of the same compound?
Answer: 0

Question: What about the “Wheat plant response rating” value [1, 20] of the same compound?
Answer: 0

Question: What about the “Wheat plant response rating” value [1, 21] of the same compound?
Answer: 0

Question: What about the “Ragweed plant response rating” value [2, 14] of the same compound?
Answer: 70

Question: And the “Plant response rating, Ragweed” value [2, 15]?
Answer: 98

Question: And the “Plant response rating, Ragweed” value [2, 16]?
Answer: 95

Question: And the “Plant response rating, Ragweed” value [2, 17]?
Answer: 60

Question: And the “Plant response rating, Ragweed” value [2, 18]?
Answer: 85

Question: What about the “Plant response rating, Ragweed” value [2, 19] of the same compound?
Answer: 100

Question: And the “Ragweed plant response rating” value [2, 20]?
Answer: 98

Question: And the “Ragweed plant response rating” value [2, 21]?
Answer: 75

Question: And the “Soybean plant response rating” value (soybean (Glycine max); [14])?
Answer: 5

Question: And the “Plant response rating, Soybean” value (soybean (Glycine max); [15])?
Answer: 5

Question: What about the “Plant response rating, Soybean” value (soybean (Glycine max); [16]) of the same compound?
Answer: 10

Question: What about the “Plant response rating, Soybean” value (soybean (Glycine max); [17]) of the same compound?
Answer: 0

Question: What about the “Plant response rating, Soybean” value (soybean (Glycine max); [18]) of the same compound?
Answer: 0

Question: And the “Plant response rating, Soybean” value (soybean (Glycine max); [19])?
Answer: 0

Question: What about the “Soybean plant response rating” value (soybean (Glycine max); [20]) of the same compound?
Answer: 0

Question: And the “Soybean plant response rating” value (soybean (Glycine max); [21])?
Answer: 5

Question: What about the “Lambsquarters plant response rating” value [3, 14] of the same compound?
Answer: 85

Question: And the “Plant response rating, Lambsquarters” value [3, 15]?
Answer: 90

Question: And the “Plant response rating, Lambsquarters” value [3, 16]?
Answer: 100

Question: What about the “Plant response rating, Lambsquarters” value [3, 17] of the same compound?
Answer: 80

Question: And the “Plant response rating, Lambsquarters” value [3, 18]?
Answer: 80

Question: And the “Plant response rating, Lambsquarters” value [3, 19]?
Answer: 85

Question: What about the “Lambsquarters plant response rating” value [3, 20] of the same compound?
Answer: 85

Question: What about the “Lambsquarters plant response rating” value [3, 21] of the same compound?
Answer: 95

Question: What about the “Ryegrass, Italian plant response rating” value [4, 14] of the same compound?
Answer: 80

Question: What about the “Plant response rating, Ryegrass, Italian” value [4, 15] of the same compound?
Answer: 85

Question: What about the “Plant response rating, Ryegrass, Italian” value [4, 16] of the same compound?
Answer: 85

Question: And the “Plant response rating, Ryegrass, Italian” value [4, 17]?
Answer: 30

Question: What about the “Plant response rating, Ryegrass, Italian” value [4, 18] of the same compound?
Answer: 40

Question: What about the “Plant response rating, Ryegrass, Italian” value [4, 19] of the same compound?
Answer: 85

Question: What about the “Ryegrass, Italian plant response rating” value [4, 20] of the same compound?
Answer: 90

Question: And the “Ryegrass, Italian plant response rating” value [4, 21]?
Answer: 80

Question: What about the “Pigweed plant response rating” value [5, 14] of the same compound?
Answer: 100

Question: What about the “Plant response rating, Pigweed” value [5, 15] of the same compound?
Answer: 80

Question: And the “Plant response rating, Pigweed” value [5, 16]?
Answer: 85

Question: What about the “Plant response rating, Pigweed” value [5, 17] of the same compound?
Answer: 75

Question: What about the “Plant response rating, Pigweed” value [5, 18] of the same compound?
Answer: 90

Question: And the “Plant response rating, Pigweed” value [5, 19]?
Answer: 95

Question: And the “Pigweed plant response rating” value [5, 20]?
Answer: 100

Question: What about the “Pigweed plant response rating” value [5, 21] of the same compound?
Answer: 85

Question: What about the “Crabgrass, Large plant response rating” value [6, 14] of the same compound?
Answer: 35

Question: What about the “Plant response rating, Crabgrass, Large” value [6, 15] of the same compound?
Answer: 35

Question: What about the “Plant response rating, Crabgrass, Large” value [6, 16] of the same compound?
Answer: 40

Question: What about the “Plant response rating, Crabgrass, Large” value [6, 17] of the same compound?
Answer: 10

Question: What about the “Plant response rating, Crabgrass, Large” value [6, 18] of the same compound?
Answer: 70

Question: What about the “Plant response rating, Crabgrass, Large” value [6, 19] of the same compound?
Answer: 10

Question: What about the “Crabgrass, Large plant response rating” value [6, 20] of the same compound?
Answer: 65

Question: What about the “Crabgrass, Large plant response rating” value [6, 21] of the same compound?
Answer: 35

Question: What about the “Morningglory plant response rating” value [7, 14] of the same compound?
Answer: 95

Question: And the “Plant response rating, Morningglory” value [7, 15]?
Answer: 100

Question: What about the “Plant response rating, Morningglory” value [7, 16] of the same compound?
Answer: 100

Question: And the “Plant response rating, Morningglory” value [7, 17]?
Answer: 70

Question: And the “Plant response rating, Morningglory” value [7, 18]?
Answer: 80

Question: And the “Plant response rating, Morningglory” value [7, 19]?
Answer: 80

Question: And the “Morningglory plant response rating” value [7, 20]?
Answer: 90

Question: And the “Morningglory plant response rating” value [7, 21]?
Answer: 95

Question: And the “Corn plant response rating” value (corn (Zea mays); [14])?
Answer: 5

Question: What about the “Plant response rating, Corn” value (corn (Zea mays); [15]) of the same compound?
Answer: 10

Question: What about the “Plant response rating, Corn” value (corn (Zea mays); [16]) of the same compound?
Answer: 20

Question: What about the “Plant response rating, Corn” value (corn (Zea mays); [17]) of the same compound?
Answer: 0

Question: And the “Plant response rating, Corn” value (corn (Zea mays); [18])?
Answer: 0

Question: What about the “Plant response rating, Corn” value (corn (Zea mays); [19]) of the same compound?
Answer: 0

Question: And the “Corn plant response rating” value (corn (Zea mays); [20])?
Answer: 0

Question: And the “Corn plant response rating” value (corn (Zea mays); [21])?
Answer: 5

Question: And the “Foxtail, Giant plant response rating” value [8, 14]?
Answer: 70

Question: And the “Plant response rating, Foxtail, Giant” value [8, 15]?
Answer: 80

Question: And the “Plant response rating, Foxtail, Giant” value [8, 16]?
Answer: 85

Question: And the “Plant response rating, Foxtail, Giant” value [8, 17]?
Answer: 75

Question: What about the “Plant response rating, Foxtail, Giant” value [8, 18] of the same compound?
Answer: 80

Question: What about the “Plant response rating, Foxtail, Giant” value [8, 19] of the same compound?
Answer: 98

Question: And the “Foxtail, Giant plant response rating” value [8, 20]?
Answer: 100

Question: What about the “Foxtail, Giant plant response rating” value [8, 21] of the same compound?
Answer: 75

Question: What about the “Johnsongrass plant response rating” value [9, 14] of the same compound?
Answer: 5

Question: What about the “Plant response rating, Johnsongrass” value [9, 15] of the same compound?
Answer: 5

Question: And the “Plant response rating, Johnsongrass” value [9, 16]?
Answer: 10

Question: What about the “Plant response rating, Johnsongrass” value [9, 17] of the same compound?
Answer: 10

Question: And the “Plant response rating, Johnsongrass” value [9, 18]?
Answer: 20

Question: What about the “Plant response rating, Johnsongrass” value [9, 19] of the same compound?
Answer: 10

Question: What about the “Johnsongrass plant response rating” value [9, 20] of the same compound?
Answer: 30

Question: What about the “Johnsongrass plant response rating” value [9, 21] of the same compound?
Answer: 5

Question: What about the “Barnyardgrass plant response rating” value [10, 14] of the same compound?
Answer: 25

Question: What about the “Plant response rating, Barnyardgrass” value [10, 15] of the same compound?
Answer: 35

Question: And the “Plant response rating, Barnyardgrass” value [10, 16]?
Answer: 45

Question: What about the “Plant response rating, Barnyardgrass” value [10, 17] of the same compound?
Answer: 5

Question: And the “Plant response rating, Barnyardgrass” value [10, 18]?
Answer: 20

Question: And the “Plant response rating, Barnyardgrass” value [10, 19]?
Answer: 40

Question: What about the “Barnyardgrass plant response rating” value [10, 20] of the same compound?
Answer: 80

Question: And the “Barnyardgrass plant response rating” value [10, 21]?
Answer: 35

Question: And the “Waterhemp plant response rating” value [11, 14]?
Answer: 60

Question: What about the “Plant response rating, Waterhemp” value [11, 15] of the same compound?
Answer: 75

Question: And the “Plant response rating, Waterhemp” value [11, 16]?
Answer: 70

Question: What about the “Plant response rating, Waterhemp” value [11, 17] of the same compound?
Answer: 70

Question: What about the “Plant response rating, Waterhemp” value [11, 18] of the same compound?
Answer: 80

Question: And the “Plant response rating, Waterhemp” value [11, 19]?
Answer: 65

Question: And the “Waterhemp plant response rating” value [11, 20]?
Answer: 85

Question: And the “Waterhemp plant response rating” value [11, 21]?
Answer: 70

Question: And the “Blackgrass plant response rating” value [12, 14]?
Answer: 40

Question: What about the “Plant response rating, Blackgrass” value [12, 15] of the same compound?
Answer: 65

Question: What about the “Plant response rating, Blackgrass” value [12, 16] of the same compound?
Answer: 80

Question: And the “Plant response rating, Blackgrass” value [12, 17]?
Answer: 60

Question: What about the “Plant response rating, Blackgrass” value [12, 18] of the same compound?
Answer: 30

Question: And the “Plant response rating, Blackgrass” value [12, 19]?
Answer: 40

Question: What about the “Blackgrass plant response rating” value [12, 20] of the same compound?
Answer: 60

Question: What about the “Blackgrass plant response rating” value [12, 21] of the same compound?
Answer: 60

Question: What about the “Kochia plant response rating” value (kochia (Kochia scoparia); [14]) of the same compound?
Answer: 0

Question: What about the “Plant response rating, Kochia” value (kochia (Kochia scoparia); [15]) of the same compound?
Answer: 35

Question: And the “Plant response rating, Kochia” value (kochia (Kochia scoparia); [16])?
Answer: 80

Question: And the “Kochia plant response rating” value (kochia (Kochia scoparia); [21])?
Answer: 30

Question: What about the “Oat, Wild plant response rating” value [13, 14] of the same compound?
Answer: 80

Question: What about the “Plant response rating, Oat, Wild” value [13, 15] of the same compound?
Answer: 90

Question: What about the “Plant response rating, Oat, Wild” value [13, 16] of the same compound?
Answer: 100

Question: What about the “Oat, Wild plant response rating” value [13, 21] of the same compound?
Answer: 85
